From patent US8518903B2, “Use of toll-like receptor-9 agonists” (University of Pittsburgh—of the Commonwealth System of …, priority 2007, dated 2013) come the findings set out here.

One experiment concerns enterocytes. Put plainly: Phosphorylated p38 and ERK in enterocytes exposed to LPS and CpG (Western blot). Type of experiment: cell-based. The method, then: FIG. 6A-C. LPS signaling is attenuated by the TLR9 ligand CpG-DNA in enterocytes. (A) Comparison of phosphorylated p38 versus total p38 in a negative control, in the presence of 50 μg/ml LPS, in the presence of 50 μg/ml LPS and 10 μM CpG, and in the presence of 10 μM CpG. (B) Comparison of phosphorylated ERK versus total ERK in a negative control, in the presence of LPS, in the presence of LPS and CpG, and in the presence of CpG. (C) Bar graph showing the results of A.
A first series of experiments was designed to study the consequences of the TLR4 activator LPS and a CpG TLR9 agonist on the mediators of activated TLR4, p38 and ERK. Throughout this example section, the CpG used was CpG ODN, 5′-[…]-3′ (SEQ ID NO:6) P38 and ERK are both phosphorylated in their activated form. As shown in FIG. 6A-C, the relative levels of phosphorylated p38 and ERK increased when enterocytes were exposed to LPS.
(Immunoblotting shows a protein as a band on a membrane.)

Another experiment deals with IEC-6 cells. As to the kind of experiment: TLR4 and TLR9 expression and distribution in enterocytes (Western blot, immunofluorescence). It counts as cell-based. The source says:
FIG. 12. TLR4 and TLR9 expression are unchanged by CpG-DNA and LPS in enterocytes. Western blot showing levels of TLR4 and TLR9 (relative to actin) in enterocytes which were either untreated (Ctrl) or treated with LPS, LPS+CpG, or CpG.
FIG. 13A-E. CpG-DNA causes a redistribution of TLR4 into internal structures in IEC-6 cells. Immunofluorescence studies showing TLR4 distribution in IEC-6 cells which were either untreated (A) or treated with (B) LPS; (C) LPS+CpG; or (D) CpG. (E) is a schematic drawing showing redistribution of TLR4 caused by TLR9.
FIG. 14A-D. LPS causes the internalization of TLR9, which is reversed by CpG-DNA. Immunofluoresence studies of IEC-6 cells showing TLR9 distribution in cells which were either (A) untreated; or treated with (B) LPS; (C) LPS+CpG; or (D) CpG.
Further experiments were performed to study the mechanism by which TLR9 suppresses the TLR4 activation.

In experiment [1] the test system is experimental NEC in newborn mice. As to the kind of experiment: Murine NEC model in NFkB-GFP transgenic mice (histology, mucosal TNF-α RTPCR, NFκB activation). Type of experiment: in vivo, mouse. Conditions: NEC mice. As to the method: FIG. 27A-G. CpG-ODN-HS and CpG-DNA reduce the development of experimental NEC in vivo in newborn mice. Newborn NEC and control mice were injected with CpG-ODN-HS or CpG-DNA. A. Histology (H&E) of terminal ileum of breast fed mouse. B. Histology (H&E) of terminal ileum of mouse after induction of NEC. C. Histology (H&E) of terminal ileum of mouse treated with CpG-DNA, after which conditions which induced NEC were applied. D. Histology (H&E) of terminal ileum of mouse treated with CpG-ODN-HS, after which conditions which induced NEC were applied. E. Histology (H&E) of terminal ileum of breast fed mouse treated with CpG-ODN-HS. F. Histology (H&E) of terminal ileum of breast fed mouse treated with CpG-DNA. G. Severity of NEC in newborn mice as scored by a blinded pediatric pathologist. *p<0.05 vs. NEC in saline-injected mice.
FIG. 28. CpG-ODN-HS and CpG-DNA reduce the expression of mucosal TNF-α in NEC newborn mice in vivo.
FIG. 29A-D. Confocal microscopy showing the extent of NFkB activation in mice with NEC in the absence or presence of CpG-ODN-HS. CpG-ODN-HS reduces the level of NFkB activation in NEC newborn mice in vivo. The mice express NFkB-GFP, and sections were stained with anti-GFP antibody (red; arrow).
The effect of the TLR9 agonist CpG-ODN 5′ […] 3′ (SEQ ID NO:10; referred to herein as CpG-ODN-HS) on the mediator of activated TLR4, NFκB, was examined in a murine NEC model (previously described, above). The effect of CpG-ODN-HS on inflammation in the NEC murine model was also examined as a measured by TNF-α expression, which is an index of inflammation.
Materials and methods. Phosphorothioated CpG-ODN-HS and oligodeoxynucleotide (ODN) 1826 ([…]) (SEQ ID NO:6; referred to herein as CpG-DNA) were synthesized by the University of Pittsburgh DNA synthesis facility. ODNs were confirmed to be endotoxin-free by Limulus assay. NFkB-GFP antibody was obtained from Santa Cruz and Abcam. The extent of nuclear translocation was determined in an adaptation of the methodology of Ding and colleagues. In brief, a threshold limit was set based upon the emission signal for the nuclear stain DRAQ5, which therefore defined a nuclear region of interest (ROI). To define a corresponding cytoplasmic region of interest, a circular region 12 pixels beyond the nucleus was stenciled upon each cell. The average integrated pixel intensity pertaining to the corresponding NFkB emission within the cytoplasmic and nuclear regions was then determined for more than 200 cells per treatment group in at least four experiments per group, using MetaMorph software version 6.1 (Molecular Devices Corporation, Downingtown, Pa.).
Mucosal TNF-α expression was measured using quantitative real-time PCR (RTPCR). Quantitative real-time PCR in cultured enterocytes and intestinal tissue using the BioRad iCycler (Biorad, Hercules, CA) was performed as in (Leaphart, C. L., J. Cavallo, S. C. Gribar, S. Cetin, J. Li, M. F. Branca, T. D. Dubowski, C. P. Sodhi, and D. J. Hackam. 2007. A Critical Role for TLR4 in the Pathogenesis of Necrotizing Enterocolitis by Modulating Intestinal Injury and Repair. J Immunology 179:4808-4820). Oligonucleotide primer pairs used for RTPCR were as follows: forward: 5′ […] 3′ (SEQ ID NO:14), reverse: 5′ […] 3′ (SEQ ID NO:15); and forward: 5′ […] 3′ (SEQ ID NO:16), reverse: 5′ […] 3′ (SEQ ID NO:17). Gene expression was normalized to β-actin expression. Where indicated, gene expression was assessed on 2.5% agarose gels using ethidium bromide staining. […]

Consider 5′-TCCATGACGTTCCTGACGTT-3′ [CpG-DNA], for which the “relative level of phosphorylated p38 (increase caused by LPS)” value in the experiment on enterocytes (50 μg/ml LPS + 10 μM CpG vs LPS alone) is “significantly less”. Moreover, the “relative level of phosphorylated ERK (increase caused by LPS)” value with enterocytes (LPS + CpG vs LPS alone) is “significantly less”. Further, the “LPS-caused internalization of TLR9” value with IEC-6 cells (IEC-6 cells, LPS + CpG) is “reversed”. Further, the TLR4 distribution entry in the experiment on IEC-6 cells (IEC-6 cells, immunofluorescence) is listed as “causes a redistribution of TLR4 into internal enterocyte structures”. Moreover, in the experiment on IEC-6 cells (enterocytes treated with CpG-DNA and LPS), the “TLR4 and TLR9 expression” value was “unchanged”. Also, the “level of expression of mucosal TNF-α in terminal ileum” value in experiment [1] (RTPCR) is listed as “reduced”. In experiment [1] (treated vs untreated), the “NEC pathology (histology of terminal ileum)” value is reported as “inhibition of the NEC pathology”.
